Laboratory results: ChEMBL document CHEMBL1201862, “PubChem BioAssay data set” (2004)
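Tested at 5 concentrations; 48 h exposure; 96-well plates; endpoints linearly interpolated, else capped at highest concentration. Here, GI50 denotes the concentration required for 50% inhibition of growth.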 The source made the active and inactive calls. Rule as the data show it: active = GI50 up to about 1.1 µM and inactive = higher.

What was measured:
Assay in all cases: DTP human tumour cell line panel, 48 h
LOX IMVI = system: LOX IMVI
OVCAR-3 = system: OVCAR-3
SR = system: SR
UO-31 = system: UO-31
CCRF-CEM = system: CCRF-CEM
MDA-MB-435 = system: MDA-MB-435
MOLT-4 = system: MOLT-4
NCI-H23 = system: NCI-H23
HCC 2998 = system: HCC 2998
SK-MEL-28 = system: SK-MEL-28
Malme-3M = system: Malme-3M
A498 = system: A498
HOP-92 = system: HOP-92
MCF7 = system: MCF7
ACHN = system: ACHN
SW-620 = system: SW-620
OVCAR-4 = system: OVCAR-4
KM12 = system: KM12
SF-539 = system: SF-539
NCI-H460 = system: NCI-H460

Measured: GI50

Nc1ccccc1/N=N/c1c(S(=O)(=O)O)cc2cc(S(=O)(=O)O)cc(O)c2c1O
inactive: LOX IMVI > 100 µM | OVCAR-3 > 100 µM | SR > 100 µM | UO-31 > 100 µM | CCRF-CEM > 100 µM | MDA-MB-435 > 100 µM | MOLT-4 > 100 µM | NCI-H23 > 100 µM | HCC 2998 > 100 µM | SK-MEL-28 > 100 µM | Malme-3M > 100 µM | A498 > 100 µM | HOP-92 > 100 µM | MCF7 > 100 µM | ACHN > 100 µM | SW-620 > 100 µM | OVCAR-4 > 100 µM | KM12 > 100 µM

O=C1CCC(C(=O)O)C2=C1CCCC2 (centres undefined)
inactive: LOX IMVI > 100 µM | OVCAR-3 > 100 µM | SR > 100 µM | CCRF-CEM > 100 µM | MDA-MB-435 > 100 µM | MOLT-4 > 100 µM | NCI-H23 > 15.5 µM | HCC 2998 > 100 µM | SK-MEL-28 > 100 µM | Malme-3M > 100 µM | A498 > 100 µM | HOP-92 > 100 µM | MCF7 51.6 µM | ACHN > 100 µM | SW-620 > 100 µM | OVCAR-4 > 100 µM | KM12 > 35.6 µM

C=CCOC(=O)N1[C@H]2C#C/C=C\C#C[C@]3(O)C(=O)C[C@H](C)[C@]24O[C@]43C2=CC(=O)C=CC21OC (some centres undefined)
inactive: SR 4.62 µM | UO-31 32 µM | SF-539 20.6 µM | CCRF-CEM 16.8 µM | MDA-MB-435 16.6 µM | MOLT-4 3.72 µM | NCI-H23 27.2 µM | HCC 2998 26.5 µM | SK-MEL-28 95.9 µM | Malme-3M 43.7 µM | A498 2.35 µM | HOP-92 38 µM | MCF7 16.9 µM | ACHN 20.2 µM | SW-620 32.8 µM | NCI-H460 13.9 µM | OVCAR-4 26.4 µM | KM12 32.9 µM

CC1CC2OC(=N)C1(C#N)C2(C#N)C#N (centres undefined)
inactive: LOX IMVI 14.7 µM | SR 25.3 µM | UO-31 24.5 µM | SF-539 22.5 µM | CCRF-CEM 4.94 µM | MDA-MB-435 34 µM | MOLT-4 24.7 µM | NCI-H23 23.6 µM | HCC 2998 19.5 µM | SK-MEL-28 35.3 µM | Malme-3M 15.8 µM | A498 20.3 µM | HOP-92 17.9 µM | MCF7 28 µM | ACHN 31.4 µM | SW-620 18.2 µM | KM12 39.3 µM

COC(CC1(CCNc2ccccc2)C(=O)N(COCC[Si](C)(C)C)c2ccccc21)OC (centres undefined)
inactive: LOX IMVI 12.5 µM | OVCAR-3 15.6 µM | SR > 32.8 µM | UO-31 13.9 µM | CCRF-CEM 15.8 µM | MDA-MB-435 13.3 µM | MOLT-4 > 43.7 µM | NCI-H23 16.5 µM | HCC 2998 2.11 µM | SK-MEL-28 6.98 µM | A498 21.1 µM | HOP-92 13.8 µM | MCF7 10.4 µM | ACHN 17.9 µM | SW-620 18.9 µM | NCI-H460 15 µM | OVCAR-4 13.6 µM | KM12 8.85 µM

O=c1[nH]c(=O)n(CCOc2ccccc2)cc1Nc1ccccc1
inactive: LOX IMVI > 100 µM | OVCAR-3 > 100 µM | SR > 100 µM | UO-31 > 100 µM | CCRF-CEM > 100 µM | MDA-MB-435 > 100 µM | MOLT-4 > 100 µM | NCI-H23 > 100 µM | HCC 2998 > 100 µM | SK-MEL-28 > 100 µM | Malme-3M > 100 µM | A498 > 100 µM | HOP-92 6.32 µM | MCF7 > 100 µM | ACHN 92.7 µM | SW-620 > 100 µM | NCI-H460 > 100 µM | KM12 > 100 µM

CC(=O)OCC1OC(NC(=S)Nn2c(-c3ccccc3)nc3ccccc3c2=O)C(OC(C)=O)C(OC(C)=O)C1OC(C)=O (centres undefined)
inactive: LOX IMVI > 100 µM | OVCAR-3 30.8 µM | SR 35.6 µM | UO-31 > 100 µM | SF-539 37.8 µM | CCRF-CEM 38.5 µM | MDA-MB-435 > 100 µM | MOLT-4 46.9 µM | NCI-H23 > 100 µM | HCC 2998 97.9 µM | SK-MEL-28 90.2 µM | Malme-3M 52.8 µM | A498 > 100 µM | HOP-92 38.4 µM | MCF7 85.9 µM | ACHN > 100 µM | SW-620 > 100 µM | NCI-H460 > 100 µM | KM12 > 100 µM

CC1=N[C@@](C)(C2CC3C=CC2C3=O)COC1=O (some centres undefined)
inactive: OVCAR-3 > 100 µM | SR > 100 µM | UO-31 > 100 µM | SF-539 > 100 µM | CCRF-CEM > 100 µM | MDA-MB-435 > 100 µM | MOLT-4 > 100 µM | NCI-H23 > 100 µM | HCC 2998 > 100 µM | SK-MEL-28 > 100 µM | Malme-3M > 100 µM | A498 > 100 µM | HOP-92 > 100 µM | MCF7 > 100 µM | ACHN > 100 µM | SW-620 > 100 µM | NCI-H460 > 100 µM | OVCAR-4 > 100 µM | KM12 > 100 µM
